Reference: patent publication US9469668B2, “Magnetic substance” (IHI CORPORATION, priority 2013, dated 2016)

Tests used:
[1] = Saturation magnetization measurement (magnetic property evaluation device MPMS7); format: physicochemical
Procedure: The measurement was conducted based on a magnetic property evaluation device MPMS7 manufactured by Kantum.

[2] = Particle diameter of single crystal by transmission electron microscope; format: physicochemical; details: single crystal of the salen complex having the highest ferromagnetic property; TEM, 140 samples
Procedure: A used device, conditions, and so on are as follows. Device: transmission electron microscope (H-7100FA manufactured by Hitachi) Conditions: acceleration voltage 100 kV Sample adjustment: dispersion method (after the salen complex was ground with a mortar, pure water was added to the ground salen complex, which was then dispersed in a grid by TEM) Grain size distribution measurement software: Image-Pro plus (Media cybermetrics, MD, U.S.A.) Measured target: traced images of the iron-salen complex in TEM photographs Number of samples: 140

- saturation magnetization ([1]; crystals having the highest magnetic property among 5-6 iron-salen complex preparations): 1.25 emu/g
- saturation magnetization ([1]; crystals having the lowest magnetic property among those complexes): 0.02 emu/g
- average particle diameter [2]: 450 nm
Structure (SMILES): Oc1ccccc1C=NCCN=Cc1ccccc1O.[Fe+2] [iron-salen complex, N,N′-bis(salicylidene)ethylenediamine iron(II)]
